# EP0345906B1, “Unique elastase induced fibrinogen cleavage site antigens” (MERCK & CO. INC., priority 1988, dated 1989)
# Legend:
# whole human blood = assay: In vitro production of Aα 17-21 epitope containing peptide in human blood, other membrane perturbators with cytochalasin B; type: cell-based; settings: 5 mg/ml cytochalasin B
# Method: Other known membrane perturbators have been used to evaluate the in vitro production of the epitope containing cleavage peptide Aα 17-21 in human blood. Aliquots of freshly-drawn heparinized whole blood were incubated for 25 minutes at 37°C in the presence of either 5 mg/ml cytochalasin B and concentrations of phorbol-12-myristate-13-acetate (PMA) ranging up to 20 mM or in the presence of the combination of 5 mg/ml cytochalasin B and concentrations of n-formyl-L-norleucyl-L-leucyl-L-phenylalanine (FNLP) ranging up to 20 mM. Plasma was collected, prepared and assayed as described above.
# human leukocyte elastase = target: T1, human leukocyte elastase (Homo sapiens, UniProt P08246); assay: Elastase inhibitor activity assay: A23187-stimulated fibrinogen cleavage peptide production in whole human blood; type: cell-based; settings: A23187 150 mM
# T1 construct: exposure of whole human blood to calcium ionophore A23187 results in elastase cleavage product by allowing the release of neutrophil elastase; endogenous in cells; host or cells: leukocytes (neutrophils) in freshly drawn heparinized whole human blood, stimulated with A23187
# T1 sequence (P08246 30-267): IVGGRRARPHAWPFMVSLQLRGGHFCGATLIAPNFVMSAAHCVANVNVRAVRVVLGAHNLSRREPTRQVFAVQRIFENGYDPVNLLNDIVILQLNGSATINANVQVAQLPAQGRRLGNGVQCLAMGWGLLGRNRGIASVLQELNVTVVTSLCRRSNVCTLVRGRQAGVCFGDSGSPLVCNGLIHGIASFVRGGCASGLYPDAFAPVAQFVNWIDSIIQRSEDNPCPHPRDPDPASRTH
# Method: The above defined assay technology is used to monitor the activity of human elastase inhibitors on human leukocyte elastase activity in human and primate blood. […] Replicate aliquots of freshly-drawn heparinized whole human blood are prepared with concentrations of elastase inhibitor ranging up to about 300 mg/ml. Following a brief pre-incubation with the inhibitor, a membrane perturbator, such as calcium ionophore A23187, is added at a concentration of between about 75 mM and about 300 mM. Non-membrane perturbator controls containing blood and perturbator-only controls are included to measure the extent of uninhibited peptide generation. All assay samples are incubated at about 37°C for about 25 minutes. The plasma is then prepared and assayed for fibrinogen cleavage products as described above.
# The effect of the elastase inhibitor 3-Acetoxymethyl-1a-methoxy-6-oxo-5-thia-1-azabicyclo[4.2.0]oct-2-ene-2-(2-(S)-carboxypyrrolidinecarboxamide)5,5-dioxide (compound 1) on the calcium ionophore A23187-induced fibrinogen cleavage peptide production was evaluated. Replicate 2 ml aliquots of freshly-drawn heparinized whole human blood were prepared with concentrations of compound 1 ranging up to […]. Following a brief pre-incubation of 5 minutes at 37°C, calcium ionophore A23187 was added to a final concentration of 150 mM. Non-ionophore containing blood and ionophore-only (no inhibitor) controls were included to measure the extent of uninhibited peptide generation. All aliquots were incubated at 37°C for 25 minutes, the plasma collected, processed and assayed for fibrinogen cleavage peptide as described above.
# leukocyte elastase = assay: Ionophore-induced peptide production in blood drawn from an elastase inhibitor-treated chimpanzee; type: in vivo
# Method: In vivo inhibition of fibrinogen cleavage products following treatment of primates with an elastase inhibitor is evaluated. Blood or fluid samples are collected both before and after treatment with either an elastase inhibitor or saline. Each heparinized blood sample is divided into about 4 aliquots (about 1 ml) and processed as described above. Treatment of an animal with an elastase inhibitor causes a marked reduction in the amount of elastase cleavage product produced.
# Two chimpanzees were anesthetized and fitted with venous catheters for the collection of blood. Blood was collected from each animal at intervals over a 60 minute period prior to the administration of the elastase inhibitor. All blood samples were collected in heparin. After the initial 60 minute period one animal was given an intravenous injection of 10 mg/kg of the elastase inhibitor compound 1 while the other animal received an equivalent volume of normal saline. Additional heparinized blood samples were taken from both animals at regular intervals over the next 60 minutes. Each freshly-drawn sample of whole heparinized chimpanzee blood was divided into 4 aliquots. Calcium ionophore A23187 was added at a final concentration of 150 mM to two of the aliquots and an equivalent volume of the DMSO vehicle was added to the other two. All blood samples were incubated at 37° for 25 minutes, plasma collected and assayed as described above.
# Elastase inhibitor was infused into the treated animal at time 0.
molecule,measurement,setting,value
"CCCCCCCCCCCCCC(=O)O[C@@H]1[C@@H](C)[C@@]2(O)[C@@H](C=C(CO)C[C@]3(O)C(=O)C(C)=C[C@@H]23)[C@@H]2C(C)(C)[C@]12OC(C)=O [PMA, phorbol-12-myristate-13-acetate]",Aα 17-21 Epitope Containing Peptide Produced (picomoles/ml plasma),"whole human blood; PMA 0.003 mMolar, 25 minutes at 37°C",0.0 picomoles/ml plasma
same,Aα 17-21 Epitope Containing Peptide Produced (picomoles/ml plasma),whole human blood; PMA 0.010 mMolar,0.3 picomoles/ml plasma
same,Aα 17-21 Epitope Containing Peptide Produced (picomoles/ml plasma),whole human blood; PMA 0.03 mMolar,0.3 picomoles/ml plasma
same,Aα 17-21 Epitope Containing Peptide Produced (picomoles/ml plasma),whole human blood; PMA 0.10 mMolar,0.4 picomoles/ml plasma
same,Aα 17-21 Epitope Containing Peptide Produced (picomoles/ml plasma),whole human blood; PMA 0.30 mMolar,0.9 picomoles/ml plasma
same,Aα 17-21 Epitope Containing Peptide Produced (picomoles/ml plasma),whole human blood; PMA 1.0 mMolar,1.5 picomoles/ml plasma
same,Aα 17-21 Epitope Containing Peptide Produced (picomoles/ml plasma),whole human blood; PMA 3.0 mMolar,2.6 picomoles/ml plasma
same,Aα 17-21 Epitope Containing Peptide Produced (picomoles/ml plasma),whole human blood; PMA 10.0 mMolar,3.0 picomoles/ml plasma
same,Aα 17-21 Epitope Containing Peptide Produced (picomoles/ml plasma),whole human blood; PMA 20.0 mMolar,3.7 picomoles/ml plasma
"COC1C(=O)N2C(C(=O)N3CCCC3C(=O)O)=C(COC(C)=O)CS(=O)(=O)C12 [compound 1, 3-Acetoxymethyl-1a-methoxy-6-oxo-5-thia-1-azabicyclo[4.2.0]oct-2-ene-2-(2-(S)-carboxypyrrolidinecarboxamide)5,5-dioxide]",Cleavage Product Produced picomoles/ml,human leukocyte elastase; Elastase Inhibitor 1 mg/ml,2.3 picomoles/ml
same,inhibition at 1000 µg/mL,"human leukocyte elastase; Elastase Inhibitor 1 mg/ml, read-out: Percent Inhibition",4%
same,Cleavage Product Produced picomoles/ml,human leukocyte elastase; Elastase Inhibitor 5 mg/ml,1.6 picomoles/ml
same,Cleavage Product Produced picomoles/ml,human leukocyte elastase; Elastase Inhibitor 10 mg/ml,1.6 picomoles/ml
same,Cleavage Product Produced picomoles/ml,human leukocyte elastase; Elastase Inhibitor 20 mg/ml,1.5 picomoles/ml
same,Cleavage Product Produced picomoles/ml,human leukocyte elastase; Elastase Inhibitor 30 mg/ml,1.2 picomoles/ml
same,Cleavage Product Produced picomoles/ml,human leukocyte elastase; Elastase Inhibitor 40 mg/ml,0.8 picomoles/ml
same,Cleavage Product Produced picomoles/ml,human leukocyte elastase; Elastase Inhibitor 80 mg/ml,0.4 picomoles/ml
same,A 1-21 Peptide Produced (picomoles/ml plasma) Treated,"leukocyte elastase; Time 1.0 min after intravenous injection of 10 mg/kg, blood stimulated with A23187 150 mM",1.10 picomoles/ml plasma
same,A 1-21 Peptide Produced (picomoles/ml plasma) Treated,leukocyte elastase; Time 2.5 min after intravenous 10 mg/kg,1.30 picomoles/ml plasma
same,A 1-21 Peptide Produced (picomoles/ml plasma) Treated,leukocyte elastase; Time 5.0 min after intravenous 10 mg/kg,1.60 picomoles/ml plasma
same,A 1-21 Peptide Produced (picomoles/ml plasma) Treated,leukocyte elastase; Time 7.5 min after intravenous 10 mg/kg,2.00 picomoles/ml plasma
same,A 1-21 Peptide Produced (picomoles/ml plasma) Treated,leukocyte elastase; Time 10.0 min after intravenous 10 mg/kg,1.80 picomoles/ml plasma
same,A 1-21 Peptide Produced (picomoles/ml plasma) Treated,leukocyte elastase; Time 12.5 min after intravenous 10 mg/kg,1.70 picomoles/ml plasma
same,A 1-21 Peptide Produced (picomoles/ml plasma) Treated,leukocyte elastase; Time 15.0 min after intravenous 10 mg/kg,0.98 picomoles/ml plasma
same,A 1-21 Peptide Produced (picomoles/ml plasma) Treated,leukocyte elastase; Time 20.0 min after intravenous 10 mg/kg,1.90 picomoles/ml plasma
same,A 1-21 Peptide Produced (picomoles/ml plasma) Treated,leukocyte elastase; Time 30.0 min after intravenous 10 mg/kg,2.20 picomoles/ml plasma
same,A 1-21 Peptide Produced (picomoles/ml plasma) Treated,leukocyte elastase; Time 40.0 min after intravenous 10 mg/kg,3.10 picomoles/ml plasma
same,A 1-21 Peptide Produced (picomoles/ml plasma) Treated,leukocyte elastase; Time 50.0 min after intravenous 10 mg/kg,2.60 picomoles/ml plasma
same,A 1-21 Peptide Produced (picomoles/ml plasma) Treated,leukocyte elastase; Time 60.0 min after intravenous 10 mg/kg,2.50 picomoles/ml plasma
same,levels of the fibrinogen peptide produced in response to calcium ionophore A23187 after infusion,"leukocyte elastase; treated chimpanzee, 10 mg/kg intravenous, in words",markedly lower levels
n-formyl-L-norleucyl-L-leucyl-L-phenylalanine [FNLP],Aα 17-21 Epitope Containing Peptide Produced (picomoles/ml plasma),"whole human blood; FNLP 0.001 mMolar, 25 minutes at 37°C",0.0 picomoles/ml plasma
same,Aα 17-21 Epitope Containing Peptide Produced (picomoles/ml plasma),whole human blood; FNLP 0.003 mMolar,0.0 picomoles/ml plasma
same,Aα 17-21 Epitope Containing Peptide Produced (picomoles/ml plasma),whole human blood; FNLP 0.010 mMolar,0.0 picomoles/ml plasma
same,Aα 17-21 Epitope Containing Peptide Produced (picomoles/ml plasma),whole human blood; FNLP 0.03 mMolar,0.4 picomoles/ml plasma
same,Aα 17-21 Epitope Containing Peptide Produced (picomoles/ml plasma),whole human blood; FNLP 0.1 mMolar,0.9 picomoles/ml plasma
same,Aα 17-21 Epitope Containing Peptide Produced (picomoles/ml plasma),whole human blood; FNLP 0.3 mMolar,1.1 picomoles/ml plasma
same,Aα 17-21 Epitope Containing Peptide Produced (picomoles/ml plasma),whole human blood; FNLP 1.0 mMolar,1.1 picomoles/ml plasma
same,Aα 17-21 Epitope Containing Peptide Produced (picomoles/ml plasma),whole human blood; FNLP 3.0 mMolar,1.3 picomoles/ml plasma
same,Aα 17-21 Epitope Containing Peptide Produced (picomoles/ml plasma),whole human blood; FNLP 10.0 mMolar,1.2 picomoles/ml plasma
same,Aα 17-21 Epitope Containing Peptide Produced (picomoles/ml plasma),whole human blood; FNLP 20.0 mMolar,1.3 picomoles/ml plasma
